Patent US20100048488A1, “IMMUNOMODULATORY PEPTIDES” (Syntonix Pharmaceuticals, Inc., priority 2008, published 2010)

Key:
[1] = Solubility by visual inspection of lyophilized peptide in buffer; format: physicochemical; conditions: for Solubility at 50 mg/mL peptide in PBS + 40 mM sodium phosphate, pH 7.4, after 30 minutes at room temperature: PBS + 40 mM sodium phosphate pH 7.4, 30 minutes room temperature; for Solubility at 100 mg/mL peptide in 100 mM sodium phosphate, pH 7.4, after 30 minutes at room temperature: 100 mM sodium phosphate pH 7.4, 30 minutes room temperature
[2] = Pharmacokinetics in SD rats (serum peptide concentration by LCMS); format: in vivo; conditions: rat, sc, single subcutaneous dose, peptide concentration 30 mg/mL; for level at 0.5 h: timepoint 0.5 hr; for level at 2 h: timepoint 2.00 hr; for level at 4 h: timepoint 4.00 hr; for level at 6 h: timepoint 6.00 hr; for level at 24 h: timepoint 24.00 hr; for level at 48 h: timepoint 48.00 hr
Method: SD Rats (3 per group) were treated with a single subcutaneous dose of either Peptide 283 or Peptide 310, at a peptide concentration of 30 mg/mL. Blood was collected at 0.5, 2, 4, 6, 24, 48 hours, serum was prepared and the peptide concentrations in serum were determined by LCMS.

[3] = target: T1, soluble human FcRn (shFcRn) (Homo sapiens, UniProt P55899); assay: Peptide-IgG competition ELISA; format: binding; conditions: 3 nM human IgG, pH 6, 37° C. 2 hours
T1 construct: made in house; host or cells: Chinese hamster ovary (CHO) cells, glutamine synthetase expression system
Method: The wells were coated with 100 μl/well of 1 μg/ml biotinylated-shFcRn in Buffer A. The plate was sealed and incubated at 37° C. for 2 hours. Afterwards, the plate was washed with 200 μl/well of Buffer B (Buffer B: 100 mM MES pH 6, 150 mM NaCl, 0.5% BSA IgG-free (Jackson ImmunoResearch, West Grove, Pa.), 0.05% Tween-20). […] To allow for mixing, the plate was rocked for 2 minutes, sealed and incubated at 37° C. for 2 hours. […] The plate was covered, incubated for 30 minutes at room temperature and washed 4 times with 200 μl/well of ice-cold buffer B. SureBlue TMB substrate solution (100 μl/well, KPL, Gaithersburg, Md.) was added and the plate was allowed to incubate at room temperature until color developed, which took 5 to 10 minutes. Once color developed, 100 μl/well of TMB stop solution (KPL, Gaithersburg, Md.) was added and the absorbance was measured at 450 nm.

T1 sequence (P55899 24-297 limits assumed): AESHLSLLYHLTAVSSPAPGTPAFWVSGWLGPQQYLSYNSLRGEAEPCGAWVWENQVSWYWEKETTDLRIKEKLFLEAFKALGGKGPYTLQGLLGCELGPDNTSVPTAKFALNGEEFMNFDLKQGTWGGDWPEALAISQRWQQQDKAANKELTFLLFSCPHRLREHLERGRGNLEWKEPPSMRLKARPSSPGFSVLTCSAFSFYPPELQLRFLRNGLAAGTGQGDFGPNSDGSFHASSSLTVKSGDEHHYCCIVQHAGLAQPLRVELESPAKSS
T1 sequence (P61769 21-119 partner): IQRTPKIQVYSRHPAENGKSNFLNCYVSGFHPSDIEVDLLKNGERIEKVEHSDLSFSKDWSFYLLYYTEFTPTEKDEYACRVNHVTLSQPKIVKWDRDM

## CC(C)C[C@H]1C(=O)N[C@@H](Cc2ccc(O)cc2)C(=O)N2CCC[C@H]2C(=O)N[C@H](C(N)=O)CSSC(C)(C)[C@H](NC(=O)[C@H](Cc2ccccc2)NC(=O)[C@H](CCCNC(=N)N)NC(=O)CCC(=O)N[C@@H](CCCNC(=N)N)C(=O)N[C@@H](Cc2ccccc2)C(=O)N[C@@H]2C(=O)N[C@@H]([C@@H](C)O)C(=O)NCC(=O)N[C@@H](Cc3c[nH]cn3)C(=O)N[C@@H](Cc3ccccc3)C(=O)NCC(=O)N(C)CC(=O)N(C)[C@@H](CC(C)C)C(=O)N[C@@H](Cc3ccc(O)cc3)C(=O)N3CCC[C@H]3C(=O)N[C@H](C(N)=O)CSSC2(C)C)C(=O)N[C@@H]([C@@H](C)O)C(=O)NCC(=O)N[C@@H](Cc2c[nH]cn2)C(=O)N[C@@H](Cc2ccccc2)C(=O)NCC(=O)N(C)CC(=O)N1C [Peptide No. 283]
[1]
  Solubility at 50 mg/mL peptide in PBS + 40 mM sodium phosphate, pH 7.4, after 30 minutes at room temperature: Insoluble
  Solubility at 100 mg/mL peptide in 100 mM sodium phosphate, pH 7.4, after 30 minutes at room temperature: Insoluble
[2]
  level at 0.5 h: 23 ± 14 ng/mL
  level at 2 h: 50 ± 16 ng/mL
  level at 4 h: 66 ± 42 ng/mL
  level at 6 h: 68 ± 34 ng/mL
  level at 24 h: 41 ± 6 ng/mL
  level at 48 h: 19 ± 4 ng/mL

## CC(C)C[C@H]1C(=O)N[C@@H](Cc2ccc(O)cc2)C(=O)N2CCC[C@H]2C(=O)N[C@H](C(=O)N[C@@H](CCCCN)C(N)=O)CSSC(C)(C)[C@H](NC(=O)[C@H](Cc2ccccc2)NC(=O)[C@H](CCCNC(=N)N)NC(=O)CCC(=O)N[C@@H](CCCNC(=N)N)C(=O)N[C@@H](Cc2ccccc2)C(=O)N[C@@H]2C(=O)N[C@@H]([C@@H](C)O)C(=O)NCC(=O)N[C@@H](Cc3c[nH]cn3)C(=O)N[C@@H](Cc3ccccc3)C(=O)NCC(=O)N(C)CC(=O)N(C)[C@@H](CC(C)C)C(=O)N[C@@H](Cc3ccc(O)cc3)C(=O)N3CCC[C@H]3C(=O)N[C@H](C(=O)N[C@@H](CCCCN)C(N)=O)CSSC2(C)C)C(=O)N[C@@H]([C@@H](C)O)C(=O)NCC(=O)N[C@@H](Cc2c[nH]cn2)C(=O)N[C@@H](Cc2ccccc2)C(=O)NCC(=O)N(C)CC(=O)N1C [Peptide No. 310]
[3]
  IC50: 1.8 ± 1.1 nM
[1]
  Solubility at 50 mg/mL peptide in PBS + 40 mM sodium phosphate, pH 7.4, after 30 minutes at room temperature: Soluble
  Solubility at 100 mg/mL peptide in 100 mM sodium phosphate, pH 7.4, after 30 minutes at room temperature: Soluble
[2]
  level at 0.5 h: 137 ± 60 ng/mL
  level at 2 h: 183 ± 81 ng/mL
  level at 4 h: 440 ± 156 ng/mL
  level at 6 h: 557 ± 268 ng/mL
  level at 24 h: 117 ± 36 ng/mL
  level at 48 h: 37 ± 15 ng/mL

## CC(C)C[C@H]1C(=O)N[C@@H](Cc2ccc(O)cc2)C(=O)N2CCC[C@H]2C(=O)N[C@H](C(=O)N[C@@H](CCCNC(=N)N)C(N)=O)CSSC(C)(C)[C@H](NC(=O)[C@H](Cc2ccccc2)NC(=O)[C@H](CCCNC(=N)N)NC(=O)CCC(=O)N[C@@H](CCCNC(=N)N)C(=O)N[C@@H](Cc2ccccc2)C(=O)N[C@@H]2C(=O)N[C@@H]([C@@H](C)O)C(=O)NCC(=O)N[C@@H](Cc3c[nH]cn3)C(=O)N[C@@H](Cc3ccccc3)C(=O)NCC(=O)N(C)CC(=O)N(C)[C@@H](CC(C)C)C(=O)N[C@@H](Cc3ccc(O)cc3)C(=O)N3CCC[C@H]3C(=O)N[C@H](C(=O)N[C@@H](CCCNC(=N)N)C(N)=O)CSSC2(C)C)C(=O)N[C@@H]([C@@H](C)O)C(=O)NCC(=O)N[C@@H](Cc2c[nH]cn2)C(=O)N[C@@H](Cc2ccccc2)C(=O)NCC(=O)N(C)CC(=O)N1C [Peptide No. 311]
[3]
  IC50: 1.5 ± 0.7 nM
[1]
  Solubility at 50 mg/mL peptide in PBS + 40 mM sodium phosphate, pH 7.4, after 30 minutes at room temperature: Insoluble
  Solubility at 100 mg/mL peptide in 100 mM sodium phosphate, pH 7.4, after 30 minutes at room temperature: Insoluble
